From ChEMBL document CHEMBL1201862, “PubChem BioAssay data set” (2004) come the findings set out here.

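All cell lines were grown in 96-well plates and treated with compound for 48 hours. At the GI50, growth is halved.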 The source made the active and inactive calls. Cut-off read from the data, not from the text of the source: active = GI50 up to about 1.1 µM and inactive = higher. Where only a bound is given, the exact number is not on record here.

Test systems include ACHN; CAKI-1; HT-29; Hs-578T; IGROV-1; K562; MCF7; MOLT-4; NCI-H460; OVCAR-3; OVCAR-5; RPMI-8226; SF-268; SK-MEL-2; SK-MEL-5; SK-OV-3; SNB-75; SW-620; U-251; UACC-62.
Holding throughout (assay): NCI tumour cell line growth inhibition, 48 h

For `CN(C)c1nc(N)nc(CS)n1`, the GI50 with ACHN was > 100 µM (inactive); in the assay with CAKI-1, > 100 µM (inactive); in the assay on HT-29 it was > 100 µM (inactive); with Hs-578T, > 100 µM (inactive); in the assay with IGROV-1, > 100 µM (inactive); in the assay with K562, 29.9 µM (inactive). The GI50 is > 100 µM (inactive) in the assay on MCF7; 50 µM (inactive) with MOLT-4; 46 µM (inactive) with NCI-H460; > 100 µM (inactive) with OVCAR-3; > 100 µM (inactive) in the assay with OVCAR-5; 96.2 µM (inactive) in the assay with RPMI-8226. Besides, the GI50 is > 100 µM (inactive) with SF-268; 36.2 µM (inactive) in the assay with SK-MEL-2; > 100 µM (inactive) in the assay on SK-MEL-5; > 100 µM (inactive) in the assay on SK-OV-3; > 100 µM (inactive) with SNB-75; > 100 µM (inactive) in the assay with SW-620. Also, the figures for the GI50 with U-251 and in the assay with UACC-62 were 89.5 µM (inactive) and 61.4 µM (inactive), respectively.
As to `CS(C)(=O)=N/C=C\C(=O)C(Cl)(Cl)Cl`, the GI50 was > 100 µM (inactive) with ACHN; > 100 µM (inactive) in the assay with CAKI-1; > 100 µM (inactive) in the assay on HT-29; > 100 µM (inactive) with Hs-578T; 93.5 µM (inactive) in the assay on IGROV-1; > 100 µM (inactive) with K562. The GI50 with MCF7 is > 100 µM (inactive); with MOLT-4, 53.8 µM (inactive); in the assay on NCI-H460 it was > 100 µM (inactive); in the assay on OVCAR-3 it was > 100 µM (inactive); in the assay with OVCAR-5 it was > 100 µM (inactive); with RPMI-8226, 83 µM (inactive). For the same molecule, the GI50 is > 100 µM (inactive) in the assay with SF-268; 46.8 µM (inactive) with SK-MEL-2; > 100 µM (inactive) in the assay with SK-MEL-5; > 100 µM (inactive) in the assay with SK-OV-3; > 100 µM (inactive) with SNB-75; > 100 µM (inactive) in the assay with SW-620. Moreover, the GI50 is 79.1 µM (inactive) in the assay on U-251 and 92.3 µM (inactive) in the assay on UACC-62.
In the case of `CC(=O)Oc1cccc2c(/C=N/NC(N)=S)ncc(C)c12`, the GI50 in the assay on ACHN was 0.445 µM (active); with CAKI-1 it was 4.17 µM (inactive); in the assay with HT-29 it was 4.48 µM (inactive); in the assay on Hs-578T, 20.6 µM (inactive); in the assay with IGROV-1, 2.99 µM (inactive); with K562, 1.31 µM (inactive). Further, the GI50 in the assay with MCF7 was 0.603 µM (active); with MOLT-4, 0.385 µM (active); in the assay on NCI-H460, 0.966 µM (active); with OVCAR-3 it was 0.381 µM (active); in the assay on OVCAR-5, 7.35 µM (inactive); in the assay on RPMI-8226, 1.56 µM (inactive). Moreover, the GI50 in the assay on SF-268 was 0.357 µM (active); with SK-MEL-2 it was 5.94 µM (inactive); in the assay on SK-MEL-5 it was 1.38 µM (inactive); in the assay on SK-OV-3, 1.46 µM (inactive); with SNB-75, 4.03 µM (inactive); in the assay on SW-620 it was 4.59 µM (inactive). Also, the GI50 with U-251 was 1.01 µM (active); with UACC-62 it was 1.17 µM (inactive).
With `COc1cc(OC)c2c(c1)OC(c1ccccc1)CC2=O` (stereo not given) [DIMETHYLPINOCEMBRIN], the GI50 with ACHN, in the assay on CAKI-1, in the assay on HT-29, in the assay on Hs-578T, in the assay on IGROV-1 and in the assay with K562 was > 10 µM (inactive) throughout. In addition, the GI50 in the assay on MCF7, in the assay on MOLT-4, in the assay on NCI-H460, in the assay on OVCAR-3, in the assay with OVCAR-5 and in the assay on RPMI-8226 was > 10 µM (inactive) in each case. Further, the GI50 in the assay on SF-268, in the assay with SK-MEL-2, in the assay with SK-MEL-5, in the assay with SK-OV-3, in the assay on SNB-75 and with SW-620 was > 10 µM (inactive) throughout. The GI50 with U-251 and in the assay with UACC-62 was > 10 µM (inactive) throughout.
